Source: US5338758A (Schering Corporation, priority 1992, dated 1994)

Columns and labels:
[1] = tested on: PAF-Induced Human Platelet Aggregation; assay: PAF-induced human platelet aggregation assay (in vitro PAF antagonism); assay type: cell-based; conditions: for IC50: human platelet-rich plasma, 37° C., 2 min preincubation, PAF 1-5×10^-8 M, 0.1% DMSO, read-out: IC50 (PAF activity, inhibition of PAF-induced human platelet aggregation)
Protocol: Preparation of Platelet-Rich Plasma (PRP): Human blood (50 ml) is collected from healthy male donors. The blood is mixed with an anticoagulant solution (5 ml) containing sodium citrate (3.8%) and dextrose (2%). Blood is centrifuged at 200×g for 20 min. and the supernatant PRP is carefully transferred into a polypropylene tube. Platelet-poor-plasma (PPP) is prepared by centrifuging PRP at 800×g for 15 min. in a Beckman Microfuge B. PRP is used within 3 hours of drawing the blood.
Platelet Aggregation Assay: When an aggregating agent such as PAF is added to PRP, platelets aggregate. An aggregometer quantifies this aggregation by measuring light (infra-red) transmission through PRP and comparing it to transmission through PPP. The aggregation assays are performed using a dual-channel aggregometer (Model 440, Chrono-Log Corp., Havertown, Pa.). PRP (0.45 ml) in aggregometer curettes is continually stirred (37° C.). Solutions of test compounds in DMSO or vehicle alone (final concentration of DMSO=0.1% v/v) are added to the PRP, and, after incubation for 2 min., 10- 15 μl aliquots of PAF solution are added so as to achieve a final concentration of 1-5×10^-8 M. Incubations are continued until the increase in light transmission reaches a maximum (usually about 2 min). Values for inhibition are calculated by comparing maximal aggregation obtained in the absence and the presence of the compound. […]

Solubility = assay type: physicochemical
PAF = conditions: disclosed in JP 03,216,197; cited from earlier work

SMILES	IC50 [1]	solubility in acetone (Solubility)	solubility in chloroform (Solubility)	solubility in dichloromethane (Solubility)	solubility in dimethyl sulfoxide (Solubility)	solubility in ethyl acetate (Solubility)	solubility in hexane (Solubility)	solubility in methanol (Solubility)	solubility in petroleum ether (Solubility)	solubility in water (Solubility)	PAF antagonistic properties (in words) [1]	PAF antagonist activity (in words) (PAF)
CC1=CCC2=CCC(C)C(C)(CCC(C)=CCC1)C2C (centres unmarked) [Compound IV]	> 36000 nM	soluble	soluble	soluble	partially soluble	partially soluble	partially soluble	partially soluble	–	insoluble	antagonistic properties	–
CC1=CCCC2(C)OC2C2(O)OCC3=C2C(O)CC(C)C3(C)CC1 (centres unmarked) [III]	1260 nM	partially soluble	soluble	soluble	soluble	partially soluble	insoluble	partially soluble	insoluble	insoluble	antagonistic properties	–
CC1=CCCC2(C)OC2C(=O)C2=CC(O)C(C)C(C)(CC1)C2(C)O (centres unmarked) [Phomactin B, phomactin B]	–	–	–	–	–	–	–	–	–	–	–	PAF antagonist

The next lines start with results.

IC50 [1]	solubility in acetone (Solubility)	solubility in chloroform (Solubility)	solubility in dichloromethane (Solubility)	solubility in dimethyl sulfoxide (Solubility)	solubility in ethyl acetate (Solubility)	solubility in hexane (Solubility)	solubility in methanol (Solubility)	solubility in petroleum ether (Solubility)	solubility in water (Solubility)	SMILES	PAF antagonistic properties (in words) [1]	PAF antagonist activity (in words) (PAF)
6960 nM	partially soluble	soluble	soluble	soluble	partially soluble	insoluble	partially soluble	insoluble	insoluble	C/C1=C\CCC2(C)O[C@H]2C(=O)C2=CC[C@H](C)[C@@](C)(CC1)[C@@H]2C=O (relative stereo) [Compound I]	antagonistic properties	–
1680 nM	partially soluble	soluble	soluble	soluble	partially soluble	insoluble	partially soluble	insoluble	insoluble	CC1=CCCC2(C)OC2C2(O)OCC3C2=C(O)CC(C)C3(C)CC1 (centres unmarked) [II]	antagonistic properties	–
